Legend:
[1] = test system: RPE-MYC; assay: Model cell screen: CPPC complex localization and cell death, RPE-MYC; type: cell-based, human
Protocol: In the model screening cell lines, there was an indistinguishable threshold concentration of approximately 20 nM, which was required to show disruption of the CPPC complex by IHC at the spindle midzone and equatorial cortex of anaphase cells, indicating a failure in CPPC relocation. This similarity in the threshold effective concentration for target inhibition is, therefore, not influenced by overexpression of MYC. […] Similar data with other MYC-SL compounds were observed.

[2] = test system: NCI-H23 cells; assay: Immunofluorescent analysis of AURKB mis-localization (6 hours) and polyploidy (72 hours); type: cell-based, human; settings: 6 hours or 72 hours
Protocol: The proportion of cells with AURKB mis-localization was measured to assess the function of MKLP2 (FIG. 3C). Immunofluorescent analysis of localization of kinetochore proteins AURKB and CREST was determined. Scale bar=10 μm. FIG. 3D is an immunoblot depicting the results of an experiment in which NCI-H23 cells were transiently transfected with MKLP2 siRNA. MKLP2 knockdown efficiency was assayed by immunoblot blot analysis 72 hours after transfection. FIG. 3E are graphs depicting the proportion of cells with AURKB mis-localization after treatment with MKLP2 siRNA after 6 hours of exposure and the proportion of polyploid cells after 72 hours.
Compounds were considered positive for the induction of polyploidy when the percentage of polyploid cells in the interphase population, was ≥5% (with deduction of basal level of polyploid cells) at 72 hours after initiation of treatment (FIG. 3A right panel, FIG. 3B right panel, and FIG. 3E right panel). Polyploid cells were defined as those with multinucleated nuclei, visible upon DAPI staining. The basal level of spontaneous polyploid cells with the screening cell line was less than 1%.
Immunofluorescent (IF) analysis was used to assess enzymatic activity (FIG. 3A left panel, FIG. 3B left panel, and FIG. 3E left panel) and localization of mitotic regulators. […]

For `CNC(=O)c1cc(OC)cc(Oc2ncccc2-c2ccnc(C)c2)c1` [LG157], the cell death [1] was “extensive cell death occurred in RPE-MYC”, the “threshold concentration required to show disruption of the CPPC complex” value ([1]; IHC at spindle midzone and equatorial cortex of anaphase cells) was “approximately 20 nM” and the “mitotic defects (AURKB mis-localization, polyploidy)” value [2] was “elicit mitotic defects similar to those seen in cells treated with a known mitotic disruptor, paprotrain”.

Reference: patent publication US20260009085A1, “METHODS AND COMPOSITIONS FOR THE DIAGNOSIS AND TREATMENT OF CANCER” (Chengdu Anticancer Bioscience, Ltd., priority 2023, published 2026)
